Measured values reported in PMC11758220, “Identification of a Privileged Scaffold for Inhibition of Sterol Transport Proteins through the Synthesis and Ring Distortion of Diverse, Pseudo-Natural Products” (ACS Central Science, 2025).

Molecular target: T1, STARD4 (Homo sapiens, UniProt Q96DR4, C75S)
T1 construct: STARD4(2-205; C75S); made in house; host or cells: E. coli BL21(DE3)
T1 sequence (Q96DR4 2-205 C75S): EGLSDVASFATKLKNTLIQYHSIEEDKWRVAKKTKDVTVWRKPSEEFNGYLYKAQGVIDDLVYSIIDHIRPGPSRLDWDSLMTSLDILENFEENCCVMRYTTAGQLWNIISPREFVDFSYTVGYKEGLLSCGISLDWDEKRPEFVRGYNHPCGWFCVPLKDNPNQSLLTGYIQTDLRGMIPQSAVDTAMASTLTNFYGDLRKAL
Assay: Differential scanning fluorimetry (DSF), STARD4
Format: binding
Conditions: for ΔTm at 10 µM / STARD4 (DSF) ΔTm: single dose, Dose = 10 µM; for Kd: apparent Kd, mean of three experiments run in technical duplicates, read-out: STARD4 Kd,app (DSF); for STARD4 (DSF) ΔTmmax: maximal thermal shift
From the text: Protein expression constructs
Human ASTER domains of Aster-A(359-547), -B(364-552) and -C(318-504) were subcloned into a pGEX-6p-2rbs vector, thus introducing the cloning artifact ‘GPLGS’.3 The pGEX-6P-1-GST-OSBP(377- […]
a gift from James H. Hurley (University of California).4 The pHIS_2His6_Thrombin_STARD4(2-205;C75S) plasmid was a gift from Young Jun Im (Chonnam National University).5 STARD5A was a gift from Nicola Burgess-Brown (Addgene plasmid #42392; http://n2t.net/addgene:42392; […]
Protein expression and purification […]
vectors including an N-terminal PreScission-cleavable glutathione S-transferase (GST)-tag were expressed in Escherichia coli (E. coli) OverExpress C41 in Terrific Broth (TB) medium for 16 h at 18 °C after the induction with 0.1 mM isopropyl β-D-1-thiogalactopyranoside (IPTG). Cells were harvested at 3500 × g for 15 minutes and lysed by sonication in buffer containing 50 mM HEPES pH 7.5, 300 mM NaCl, 10 %v/v glycerol, 5 mM dithiothreitol (DTT), 0.1 %v/v Triton X-100 and protease inhibitor mix HP plus (Serva). The lysate was purified by affinity chromatography on a GSTrap FF column (Cytiva) using an ÄKTA Start (Cytiva) in buffer containing 50 mM HEPES pH 7.5, 300 mM NaCl, 10 %v/v glycerol, 5 mM DTT and 0.01 %v/v Triton X-100. The GST-tag was cleaved overnight on the column at 4 °C. The Aster sterol binding domains were further purified by size-exclusion chromatography (SEC) on a HiLoad 16/600 Superdex 75 pg (Cytiva) in buffer containing 20 mM HEPES pH 7.5, 300 mM NaCl, 10 %v/v […]
STARD5(6-213) harboring an N-terminal His6-Tag were expressed in E. coli BL21(DE3) in Luria-Bertani Broth (LB) medium for approximately 16 h at 18 °C after induction with 0.15 mM IPTG. Cells were harvested at 3500 × g for 15 minutes and lysed by sonication in buffer containing 50 mM HEPES pH 7.5, 150 mM NaCl, 5 %v/v glycerol, 5 mM DTT, 0.1 %v/v Triton X -100 and ethylenediaminetetraacetic acid (EDTA)-free protease inhibitor cocktail (Sigma-Aldrich). The cleared lysate was purified by affinity chromatography on a Ni-NTA Superflow Cartridge (Qiagen) using an ÄKTA Start (Cytiva) in buffer containing 50 mM HEPES pH 7.5, 150 mM NaCl, 5 %v/v glycerol, 5 mM DTT. START domains were eluted by using elution buffer containing 50 mM HEPES pH 7.5, 150 mM NaCl, 5 %v/v glycerol, 5 mM DTT and 500 mM imidazole. Proteins were further purified by SEC on a HiLoad 16/600 Superdex 75 pg (Cytiva) in buffer containing 20 mM HEPES pH 7.5, 150 mM NaCl, 5 %v/v glycerol and 2 mM DTT.
The ORP domain of human OSBP(377-807) in the pGEX-6p-1 vector with an N-terminal PreScission-cleavable GST-tag was expressed in E. coli OverExpress C41 in LB medium for 16 h at 18 °C after induction with 0.1 mM IPTG. Cells were harvested at 3500 × g for 15 minutes and lysed by sonication in buffer containing 20 mM HEPES pH 7.5, 300 mM NaCl, 10 %v/v glycerol, 5 mM DTT, 0.1 %v/v Triton X-100 and EDTA-free protease inhibitor cocktail (Sigma-Aldrich). The cleared lysate was purified by affinity chromatography on a GSTrap HF column (Cytiva) using an ÄKTA Start (Cytiva) in buffer containing 20 mM HEPES pH 7.5, 300 mM NaCl, 10 %v/v glycerol, 5 mM DTT. OSBP(377 -807) was eluted by using elution buffer containing 20 mM HEPES pH 7.5, 300 mM NaCl, 10 %v/v glycerol, 5 mM DTT and 10 mM reduced glutathione. Proteins were further purified by SEC on a HiLoad 16/600 Superdex 75 pg (Cytiva) using an ÄKTA Explorer (Cytiva) in buffer containing 20 mM HEPES pH 7.5, 150 mM NaCl, 10 %v/v glycerol and 2 mM DTT.
The ORP domains of human ORP1(534-950) in pET24b(+) and ORP2(49-480) in the pET24b(+) vector including an N-terminal His6-Tag were expressed in E. coli BL21(DE3) in TB medium for approximately 16 h at 18 °C after induction with 0.1 mM IPTG. Cells were collected at 3500 × g for 15 minutes and lysed by sonification in buffer containing 10 mM Tris-HCl pH 8, 300 mM NaCl, 5 % glycerol, 2 mM DTT, 0.1 % Triton X-100 and EDTA-free protease inhibitor cocktail (Sigma-Aldrich). The cleared […]

SMILES	ΔTm at 10 µM	STARD4 (DSF) ΔTm	also measured
C[C@]12CC[C@@H]3C[C@H]1CC[C@@]21C(=Nc2ccc(Br)cc21)O3 (racemic) [Compound 15b]	1.5 °C		
CC12CCC3CC1CCC21C(=Nc2ccc(N4CCOCC4)cc21)O3 (racemic) [Compound 19a]	0.851 °C		Kd: > 30 µM; STARD4 (DSF) ΔTmmax: 1.1 °C
CC12CCC3CC1CCC21C(=Nc2ccc(Br)cc21)O3 (single isomer, unassigned; (+)) [(+)-15b]	0.0899 °C		Kd: 7.89 µM; STARD4 (DSF) ΔTmmax: 1.4 °C
CC12CCC3CC1CCC21C(=Nc2ccc(N4CCOCC4)cc21)O3 (single isomer, unassigned; (+)) [(+)-19a]		0.4 °C	Kd: > 50 µM; STARD4 (DSF) ΔTmmax: 1.1 °C
CC12CCC3CC1CCC21C(=Nc2ccc(N4CCOCC4)cc21)O3 (single isomer, unassigned; (-)) [(−)-19a]		1.3 °C	Kd: > 30 µM; STARD4 (DSF) ΔTmmax: 1.3 °C
C[C@@]12CC[C@H]3C[C@@H]1CC[C@]21C(=Nc2ccc(Br)cc21)O3 [(−)-15b]	0.324 °C		Kd: 6.04 µM; STARD4 (DSF) ΔTmmax: 3.6 °C
CC(C)Oc1ccc(C(=O)Nc2nc3c(s2)CN(C(=O)OC(C)(C)C)CC3)cc1 [Autogramin-2, reference compound]		0.2 °C	Kd: > 30 µM
Cc1c2c(nc3ccccc13)[C@@]1(C)CC[C@@H](O)C[C@H]1CC2 [Compound 2a]	-0.141 °C		
C[C@]12CC[C@@H](O)C[C@H]1CCc1c2nc2ccccc2c1-c1ccccc1 [Compound 2b]		-0.0888 °C	
Cc1c2c(nc3cc(Br)ccc13)[C@@]1(C)CC[C@@H](O)C[C@H]1CC2 [Compound 2c]		0.0489 °C	
C[C@]12CC[C@@H](O)C[C@H]1CCc1c2nc2ccccc2c1-c1ccc(F)cc1 [Compound 2d]	-0.177 °C		
C[C@]12CC[C@@H](O)C[C@H]1CCc1c2nc2ccc(Cl)cc2c1-c1ccccc1 [Compound 2e]		-0.00387 °C	
C[C@]12CC[C@@H](O)C[C@H]1CCc1c2[nH]c2ncccc12 [Compound 3]	-0.021 °C		
C[C@]12CC[C@@H](O)C[C@H]1CCC[C@]21Nc2ccccc2-n2cccc21 [Compound 4]	0.6 °C	0.7 °C	
C[C@]12CC[C@@H](O)C[C@H]1CCC[C@]21NC(=O)c2ccccc2N1 [Compound 5a]	-0.124 °C	-0.0769 °C	
C[C@]12CC[C@@H](O)C[C@H]1CCC[C@]21NC(=O)c2ccc(F)cc2N1 [Compound 5b]	-0.0901 °C	0.027 °C	
COc1ccc2c(c1)C(=O)N[C@]1(CCC[C@@H]3C[C@H](O)CC[C@@]31C)N2 [Compound 5c]	-0.0676 °C	-0.0518 °C	
C[C@]12CC[C@@H](O)C[C@H]1CCc1nc3ccccc3nc12 [Compound 7a]	0.0574 °C		
Cc1cc2nc3c(nc2cc1C)[C@@]1(C)CC[C@@H](O)C[C@H]1CC3 [Compound 7b]	0.27 °C		
C[C@]12CC[C@@H](O)C[C@H]1CCc1nc3cc(F)c(F)cc3nc12 [Compound 7c]		0.0575 °C	
C[C@]12CC[C@@H](O)C[C@H]1CCc1nc3cc(Cl)c(Cl)cc3nc12 [Compound 7d]		-0.111 °C	
C[C@]12CC[C@@H](O)C[C@H]1CCc1nc3cc(Br)c(Br)cc3nc12 [Compound 7e]		0.0567 °C	
C[C@]12CC[C@@H](O)C[C@H]1CCc1sc(N)nc12 [Compound 8a]	-0.00456 °C		

SMILES	ΔTm at 10 µM	STARD4 (DSF) ΔTm	also measured
Cc1nc2c(s1)CC[C@@H]1C[C@H](O)CC[C@]21C [Compound 8b]		0.0902 °C	
C[C@]12CC[C@@H](O)C[C@H]1CCc1sc(-c3cccnc3)nc12 [Compound 8c]		0.173 °C	
COc1ccc(-c2nc3c(s2)CC[C@@H]2C[C@H](O)CC[C@]32C)cc1 [Compound 8d]	0.3 °C		
C[C@]12CC[C@@H](O)C[C@H]1CCc1sc(-c3ccc(F)cc3)nc12 [Compound 8e]		0.7 °C	
C[C@]12CC[C@@H](O)C[C@H]1CCc1[nH]c(-c3ccccc3)nc12 [Compound 9]	-0.0502 °C		
C[C@]12CC[C@@H](O)C[C@H]1CCc1c2[nH]c2ccccc12 [Compound 10a]		0.0293 °C	
C[C@]12CC[C@@H](O)C[C@H]1CCc1c2[nH]c2ccc(Br)cc12 [Compound 10b]		0.2 °C	
C[C@]12CC[C@@H](O)C[C@H]1CCc1c2[nH]c2ccc(Cl)cc12 [Compound 10c]		0.284 °C	
C[C@]12CC[C@@H](O)C[C@H]1CCc1c2[nH]c2ccc(F)cc12 [Compound 10d]		0.167 °C	
Cc1ccc2[nH]c3c(c2c1)CC[C@@H]1C[C@H](O)CC[C@]31C [Compound 10e]	0.284 °C		
COc1ccc2[nH]c3c(c2c1)CC[C@@H]1C[C@H](O)CC[C@]31C [Compound 10f]	0.0284 °C		
CC12CCC(O)CC1CCc1c2[nH]c2ccc(C(F)(F)F)cc12 (stereo not drawn) [Compound 10g]	0.00665 °C		
C[C@]12CC[C@@H](O)C[C@H]1CCc1c2[nH]c2ccc(I)cc12 [Compound 10h]		-0.0169 °C	
C[C@]12CC[C@@H](O)C[C@H]1CCc1c2[nH]c2c(F)cc(Cl)cc12 [Compound 10i]	0.441 °C		
Cc1cc(C)c2c3c([nH]c2c1)[C@@]1(C)CC[C@@H](O)C[C@H]1CC3 [Compound 10j]	-0.144 °C		
CCOC(=O)c1ccc2[nH]c3c(c2c1)CC[C@@H]1C[C@H](O)CC[C@]31C [Compound 10k]		-0.04 °C	
C[C@]12CC[C@@H](O)C[C@H]1CCC(=O)c1ccccc1NC2=O [Compound 11a]		-0.0281 °C	
C[C@]12CC[C@@H](O)C[C@H]1CCC(=O)c1cc(Br)ccc1NC2=O [Compound 11b]	0.126 °C		
Cc1ccc2c(c1)C(=O)CC[C@@H]1C[C@H](O)CC[C@]1(C)C(=O)N2 [Compound 11c]	-0.0446 °C		
COc1ccc2c(c1)C(=O)CC[C@@H]1C[C@H](O)CC[C@]1(C)C(=O)N2 [Compound 11d]	-0.0249 °C		
C[C@]12CC[C@@H](O)C[C@H]1CCC(=O)c1cc(C(F)(F)F)ccc1NC2=O [Compound 11e]	-0.0316 °C		
C[C@]12CC[C@@H](O)C[C@H]1CCC(=O)c1cc(Cl)cc(F)c1NC2=O [Compound 11f]		-0.0242 °C	
